Earlier results as cited in US11160882B2, “Indirect chromoendoscopy with an oral indigo carmine base preparation” (priority 2014, dated 2021).

How the values were obtained:
[1] = rat, oral (Lethco et al., 1966)
[2] = humans (Oravisto K., 1957)
[3] = system: colon; settings: 100 mg oral capsule before the colonic prep
[4] = system: colon; settings: 100 mg oral powder before the colonic prep

daily intake certified by the FDA (use as a food colorant): up to 2 mg/kg
dye taken orally that was absorbed [1]: 3%
clearance of absorbed food colorant from circulation [2]: cleared very rapidly
Structure (SMILES): O=C1/C(=C2\Nc3ccc(S(=O)(=O)[O-])cc3C2=O)Nc2ccc(S(=O)(=O)[O-])cc21.[Na+].[Na+] [indigo carmine]
toxicity from oral administration (oral administration): no reports of toxicity
cases in which staining of the entire colon was ineffective [3]: over 90%
side effects [4]: No side effects were observed
cases with good effect (staining), left colon ([4]; left colon): 50%
cases with good effect (staining), right colon ([4]; right colon): 80%
